Experimental data published in US11746354B2, “Homology dependent repair genome editing” (Inari Agriculture Technology, Inc., priority 2019, dated 2023).

Test system: maize (Zea mays) r1-colored1 gene
Experiment: HDR editing of an endogenous gene in maize protoplasts (RNP + dsDNA donor template, MiSeq sequencing)
Type: cell-based
Set-up: unit not given here
Details: 5 μM compound, 0.1% DMSO, B104 maize protoplasts, 48 hours at 26 degrees Celsius in the dark, average of triplicate samples; for Hypoxia Avg. (HDR): hypoxic conditions; for Normoxia Avg. (HDR): normoxic conditions
Experimental: This example describes a second set of experiments which investigated the effects of the 81 small molecules previously identified in the “traffic light” screen (Example 1) on HDR efficiency in editing an endogenous gene, the maize (Zea mays) r1-colored1 gene with partial genomic sequence SEQ ID NO: 5. A ribonucleoprotein (RNP) was prepared with a guide RNA designed to edit the promoter located at positions 313-333 of SEQ ID NO:5. A donor template was provided as a dsDNA for HDR repair. The experiments were carried out with protoplasts produced from etiolated leaves of B104 maize grown in the dark for 11 days. The protoplasts were co-transfected with the RNP and donor template. Transfected cells were incubated 48 hours at 26 degrees Celsius in the dark under either normoxic or hypoxic conditions with the indicated negative controls, positive controls, and small molecules and then harvested. The negative controls comprised cells transfected with the RNP only (no donor template). DMSO controls comprised the RNP and donor template and DMSO at a final concentration of 0.5% by volume DMSO. The positive control was a mixture of KU-0060648 (CAS No. 881375-00-4; Fischer Scientific, Waltham, Mass., USA), STL127705 (7-[2-(3,4-dimethoxyphenyl)ethyl]amino-3-(3-fluorophenyl)pyrimido[4,5-d]pyrimidine-2,4(1H,3H)-dione); Vitas-M, Champaign, Ill., USA), NU7441 (CAS No. 503468-95-9; Fischer Scientific Waltham, Mass., USA), and SCR7 pyrazine (CAS No. 14892-97-8; Tocris, Minneapolis, Minn., USA) (all at a stock concentration of 5 mM in DMSO) that was provided to the protoplasts at a final concentration of each of the four compounds of 5 μM. Certain positive control compounds have been reported to increase CRISPR-mediated HDR (Robert et al. 2015; Chu et al., 2015). All of the tested small molecules were also provided to the protoplasts at a final concentration of 5 μM of the compound and a final DMSO concentration of 0.1% by volume. Genomic DNA was isolated using KAPA Pure Bead capture (Kapa Biosystem) and the isolated gDNA was used as the template for a PCR with PHUSION FLASH (ThermoFisher). Samples were cleaned with KAPA Pure Bead capture and Illumina libraries were prepared and sequenced on MiSeq.

| Compound | Hypoxia Avg. (HDR) | Normoxia Avg. (HDR) |
| --- | --- | --- |
| Nc1nc(Cl)nc2c1ncn2[C@@H]1O[C@H](CO)[C@@H](O)[C@H]1O [2-Chloroadenosine] | 5.00 | 2.45 |
| CN(C)NC(=O)CCC(=O)O [Daminozide] | 0.48 | 4.57 |
| Cc1oc(-c2ccccc2)nc1CCOc1ccc(CC2SC(=O)NC2=O)c2sccc12 (stereo not drawn) [Edaglitazone] | 6.28 | 3.56 |
| CC(C)Cn1c(=O)n(C)c(=O)c2nc[nH]c21 [IBMX] | 4.23 | 3.05 |
| Cc1ccc(C(=O)N(CCCN)[C@@H](c2[nH]c3cc(Cl)ccc3c(=O)[n+]2Cc2ccccc2)C(C)C)cc1 [Ispinesib] | 4.04 | 3.36 |
| CC(=O)NCCNc1cc(Cl)nn2c(-c3cccc(S(=O)(=O)N(C)C)c3)c(C)nc12 [MI 14] | 7.75 | 0.37 |
| c1ccc(-c2ccc(CNc3nc(-c4ccccn4)nnc3-c3ccccc3)cc2)cc1 [ML 228] | 4.49 | 0.46 |
| CSc1nc(-c2ccc(F)cc2)c(-c2ccnc(NC(C)c3ccccc3)c2)[nH]1 (stereo not drawn) [ML 3403] | 4.36 | 1.47 |
| Nc1nccc(-c2ccc3noc(-c4ccc(Cl)cc4)c3c2)n1 [PIM-1 Inhibitor 2] | 5.19 | 1.37 |
| CC(=O)[C@H]1CC[C@H]2[C@@H]3CC[C@@H]4C[C@H](O)CC[C@]4(C)[C@H]3CC[C@]12C [Pregnanolone] | 2.52 | 4.43 |
| O=C1N=C(NCc2cccs2)S/C1=C\c1ccc2ncccc2c1 [Ro 3306] | 4.91 | 1.64 |
| CN(CCOc1ccc(CC2SC(=O)NC2=O)cc1)c1ccccn1 (stereo not drawn) [Rosiglitazone] | 4.97 | 3.20 |
| Cc1ccc(C(=O)N(CCCN)[C@@H](c2oc3cc(Cl)ccc3c(=O)c2Cc2ccccc2)C(C)C)cc1.Cl [SB 743921 Hydrochloride] | 2.97 | 4.76 |
| O=S(=O)(NCCCCCCc1ccccc1)c1cccc2c(Cl)cccc12 [SC-9] | 5.11 | 2.67 |
| CC(C)(C)c1ccc(S(=O)(=O)NCc2ccc(C(=O)Nc3cccnc3)cc2)cc1 [STF 31] | 5.00 | 0.40 |
